Source: US5574062A, “Coumarin derivative and use thereof” (Morinaga Milk Industry Co., Ltd., priority 1993, dated 1996)
Where two headings read alike, the source gives them in different places. Blank lines part the entries; values can stand above or below the compound they belong to.

Key:
[1] = target: T1, 12-lipoxygenase (Rattus norvegicus, UniProt F1LQ70); assay: 12-lipoxygenase inhibition assay (rat platelet supernatant, arachidonic acid, HPLC of 12-HETE); format: biochemical, Sprague Dawley male rat (platelets)
T1 construct: The platelets were then sonicated at 4° C. and centrifuged at 100,000×g for 30 minutes to obtain a supernatant as a 12-lipoxygenase enzyme solution; from tissue; host or cells: Sprague Dawley rat platelets (from aortic blood), sonicated, 100,000 x g supernatant
T1 sequence (F1LQ70 1-663): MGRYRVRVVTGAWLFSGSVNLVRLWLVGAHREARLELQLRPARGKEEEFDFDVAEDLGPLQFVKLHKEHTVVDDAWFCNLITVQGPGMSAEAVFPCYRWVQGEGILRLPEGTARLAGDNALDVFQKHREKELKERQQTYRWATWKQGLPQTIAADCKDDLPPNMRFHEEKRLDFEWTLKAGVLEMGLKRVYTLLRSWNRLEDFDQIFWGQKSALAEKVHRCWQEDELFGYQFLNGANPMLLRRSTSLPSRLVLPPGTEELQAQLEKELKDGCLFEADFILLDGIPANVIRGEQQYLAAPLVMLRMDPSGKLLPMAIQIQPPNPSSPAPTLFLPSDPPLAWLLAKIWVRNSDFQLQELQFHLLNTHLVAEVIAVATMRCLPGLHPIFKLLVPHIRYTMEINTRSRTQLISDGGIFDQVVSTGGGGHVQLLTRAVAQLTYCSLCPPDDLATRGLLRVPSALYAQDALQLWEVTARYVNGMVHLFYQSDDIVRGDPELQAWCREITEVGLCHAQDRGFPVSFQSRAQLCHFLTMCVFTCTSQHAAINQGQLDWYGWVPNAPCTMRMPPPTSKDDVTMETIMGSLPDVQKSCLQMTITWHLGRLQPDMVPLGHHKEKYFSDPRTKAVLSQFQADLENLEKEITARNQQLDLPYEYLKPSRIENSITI
Protocol: (§1) A Sprague Dawley male rat was anesthetized with ether and bled from abdominal aorta using a syringe filled with about one-tenth volume of 3.8% sodium citrate. Blood was centrifuged at 180×g for 15 minutes at room temperature to pellet sanguineous platelet blood plasma. The resultant supernatant was again centrifuged at 1800×g for 10 minutes at 4° C. The pelleted platelets were rinsed twice with a washing buffer (50 mM Tris-hydrochloric acid buffer containing 154 mM sodium chloride and 2 mM EDTA, pH: 7.4). The platelets were then suspended in one-twentieth volume of a resuspension buffer (50 mM Tris-hydrochloric acid buffer containing 154 mM sodium chloride and 5.5 mM glucose, pH: 7.4). The platelets were then sonicated at 4° C. and centrifuged at 100,000×g for 30 minutes to obtain a supernatant as a 12-lipoxygenase enzyme solution.
(§2) The enzyme solution described above was diluted with the resuspension buffer above mentioned to prepare an assay solution so as to include about 2 mU/ml of 12-lipoxygenase. To an aliquot (300 μl) of the assay solution was added 1 μl of a 3 mM indomethacin-ethanol solution, 1 μl of an aqueous 300 mM reduced-glutathione solution, and 3 μl of varied concentrated test compounds solution in ethanol. The resultant mixture was incubated at 37° C. for 5 minutes. Subsequently, 3 μl of a 2.5 mM arachidonic acid solution in ethanol was added to incubate with for another 5 minutes at 37° C., then the reaction was ceased by the addition of 600 μl of methanol. After being centrifuged at 10,000×g for 5 minutes, 12-hydroxyeicosatetraenoic acid recovered in the supernatant was separated with a reverse phase high-performance liquid chromatography equipped with a C-18 column and measured the absorption of diene at 234 nm to quantify the activity of 12-lipoxygenase.
(§3) As test compounds were used the compounds of the present invention prepared in the same methods as in Example 4, Example 5 and Example 8 and the compounds prepared in the same methods as in Comparative Examples 1-5, and as a control was used esculetin (purchased from Tokyo Kasei), a known compound represented by the following formula: [drawing 33] and the test was conducted at varied concentrations.
(§4) The enzyme solution was prepared according to the same manner as in Test Example 1.
(§5) The inhibition assay was performed according to the same method as described in Test Example 1 except that the same samples used in measurement of the 5-lipoxygensase activity were used to estimate IC50 values. […]
(§6) They were measured in the same method as in Test Example 1.

[2] = system: 12-lipoxygenase; assay: as above; format: biochemical, Sprague Dawley male rat (platelets); settings: comparative tests by the inventors
Protocol: as §1, §2, §3, §4, §5, §6

[3] = target: T2, 5-lipoxygenase (Rattus norvegicus, UniProt P12527); assay: 5-lipoxygenase inhibition assay (RBL-1 supernatant, arachidonic acid, HPLC of 5-HETE); format: biochemical, rat (basophilic leukemia cells RBL-1, ATCC CRL1378)
T2 construct: host or cells: RBL-1 (rat basophilic leukemia cells)
T2 sequence (P12527 1-673): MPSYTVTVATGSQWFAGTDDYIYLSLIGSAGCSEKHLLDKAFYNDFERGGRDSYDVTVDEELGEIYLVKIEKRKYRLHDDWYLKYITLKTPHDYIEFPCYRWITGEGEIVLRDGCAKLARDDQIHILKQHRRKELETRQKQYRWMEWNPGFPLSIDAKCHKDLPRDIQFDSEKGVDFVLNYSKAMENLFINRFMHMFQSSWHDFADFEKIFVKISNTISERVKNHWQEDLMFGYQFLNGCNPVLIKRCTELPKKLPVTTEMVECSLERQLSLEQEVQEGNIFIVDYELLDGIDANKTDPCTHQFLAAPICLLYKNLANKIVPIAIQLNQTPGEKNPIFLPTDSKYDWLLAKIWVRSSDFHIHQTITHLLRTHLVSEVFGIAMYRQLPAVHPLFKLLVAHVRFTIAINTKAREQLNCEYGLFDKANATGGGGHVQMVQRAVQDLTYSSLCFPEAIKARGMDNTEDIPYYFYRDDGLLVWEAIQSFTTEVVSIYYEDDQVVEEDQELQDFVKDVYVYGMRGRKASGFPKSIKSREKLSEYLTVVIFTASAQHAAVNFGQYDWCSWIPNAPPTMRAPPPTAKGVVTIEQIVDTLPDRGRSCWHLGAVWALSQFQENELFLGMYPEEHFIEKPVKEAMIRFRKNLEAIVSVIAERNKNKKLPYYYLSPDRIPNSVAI
Protocol: Rat basophilic leukemia cells (RBL-1, ATCC CRL1378) were cultured in Dulbecco modified Eagle's medium containing 10% new-born bovine serum.
Cultured cells were collected and washed twice with a 50 mM Tris-buffered saline (containing 154 mM sodium chloride, pH: 7.4, hereinafter described as TBS). The cell suspension (4×10^7 cells/ml) was then sonicated and centrifuged at 10,000×g for 10 minutes.
The resultant supernatant was used to prepare an assay solution.
To an aliquot (15 μl) of the enzyme solution (40 mU/ml equivalent) was added 185 μl of TBS, 50 μl of a 2 mM adenosine triphosphate in TBS, 50 μl of a 12 mM calcium chloride in TBS, 1 μl of a 3 mM indomethacin in ethanol solution, 1 μl of an aqueous 300 mM reduced glutathione solution, and 3 μl of varied concentrated test compounds solution in ethanol. The resultant mixture was incubated at 37° C. for 5 minutes. Subsequently, 3 μl of a 2.5 mM arachidonic acid solution in ethanol was added to incubate the mixture for 2 minutes at 37° C. The reaction was ceased by the addition of 600 μl of methanol. After being centrifuged at 10,000×g for 5 minutes, 5-hydroxyeicosatetraenoic acid recovered in the supernatant was separated with a reverse phase high-performance liquid chromatography equipped with a C-18 column and measured the absorption of diene at 234 nm to quantify the activity of the enzyme.
Using the compounds of the present invention prepared in the same manner as in Examples 1-30, and Examples 33-36 as test samples and known baicalein (purchased from Wako Junyaku Kogyo) represented by the following formula 30 as a control: [drawing 34] the tests were performed for dose dependent inhibition to estimate IC50 values
It was prepared in the same method as in Test Example 2.
They were measured in the same method as in Test Example 2.

[4] = system: 12-lipoxygenase of mastocytoma cells; settings: literature; cited from earlier work
[5] = system: 5-lipoxygenase; settings: 10 uM, cited from earlier work
[6] = system: 12-lipoxygenase; settings: same concentration (10 uM), platelets; cited from earlier work
[7] = system: 12-lipoxygenase; settings: known compound used as lead; cited from earlier work
[8] = Formation of deacylated compounds by esterases in rat platelet enzyme solution (HPLC); format: in vitro ADME, rat (platelets); settings: rat, platelet enzyme solution, 37° C., enzyme solution, read-out: conversion ratio to Formula 34b; for metabolised at 0.5 h, 10 µM: reaction time 30 minute; for metabolised at 1 h, 10 µM: reaction time 60 minute
Protocol: (§7) The test was performed to examine whether or not deacylated compounds would be formed due to esterases present in the enzyme solution when the compounds in the third embodiment according to the present invention were treated with the same enzyme solution as in Test Example 3.
(§8) The enzyme solution was prepared according to the same procedure as described in Test Example 1.
(§9) One ml of the above mentioned enzyme solution was diluted with 11 ml of a resuspension buffer. To an aliquot (300 μl) of this enzyme solution was added 3 μl of a 1.0×10^-3 M test compound solution in dimethyl sulfoxide. The mixture was incubated at 37° C. for an indicated time, then the reaction was ceased by the addition of 1 ml of acetonitrile. Twenty μl of the above mixture was subjected to reverse phase high-performance liquid chromatography equipped with a C-18 column to quantify the amount of deacylated products. As a control, a test using 300 μl of the resuspension buffer solution mentioned above instead of the enzyme solution was also performed.
(§10) Conditions of reverse phase high-performance liquid chromatography:
(§11) Column: Superspher RP-18(e) (purchased from Merck), 4.0 mm in diameter, 125 mm in length
(§12) Flow velocity: 1.0 ml/minute
(§13) Eluent: Acetonitrile containing 50 mM NaClO4 and 50 mM orthophosphate-water (55:45)
(§14) Column temperature: 30° C.
(§15) Calibration: Absorbance of 280 nm
(§16) The results of the test upon the compounds of Example 40 (Formula 43b) and Example 57 (Formula 74b) of the compounds according to the present invention will be shown. Since both the compounds of Example 40 (Formula 43b) and Example 57 (Formula 74b) are thought to be converted into the compound of Referential Example 8 (Formula 34b) through deacylation, the retention time of the compound of Referential Example 8 was checked strictly under the employed conditions with reverse phase high-performanceliquid chromatography mentioned above (retention time: 2.49 minutes) and a calibration curve of the compound was made using authentic sample of Referential Example 8.

[9] = system: esterases present in the enzyme solution; assay: as above; format: in vitro ADME, rat (platelets); settings: resuspension buffer instead of the enzyme solution
Protocol: as §7, §8, §9, §10, §11, §12, §13, §14, §15, §16

[10] = 12-Lipoxygenase inhibiting activity IC50 value, Test Example 5, Table 22
[11] = Test Example 2, Table 2, read-out: IC50 value of 12-lipoxygenase
[12] = Test Example 2, Table 2, read-out: IC50 value of 5-lipoxygenase

metabolised at 0.5 h, 10 µM [8]: 42.4%
metabolised at 1 h, 10 µM [8]: 60.4%
Compound: CCC(=O)Oc1cc2cc(-c3cccc(Cl)c3)c(=O)oc2cc1OC(=O)CC [Example 57]
formation of deacylated compound in buffer control [9]: no deacylated compound (Formula 34b) was formed

metabolised at 0.5 h, 10 µM [8]: 70.7%
metabolised at 1 h, 10 µM [8]: 72.8%
Compound: CC(=O)Oc1cc2cc(-c3cccc(Cl)c3)c(=O)oc2cc1OC(C)=O [Example 40]
formation of deacylated compound in buffer control [9]: no deacylated compound (Formula 34b) was formed

IC50 [1, 11]: 9.6 nM
IC50 ([1]; Test Example 3, Table 11, value belongs to the deacylated compound, read-out: 12-lipoxygenase inhibiting activities of deacylated compounds (IC50 values)): 9.6 nM
IC50 [3, 12]: 270 nM
Compound: O=c1oc2c(O)c(O)ccc2cc1-c1cccc(Cl)c1 [Example 22, 3-(3-chlorophenyl)-7,8-dihydroxycoumarin]

IC50 [1, 11]: 14 nM
IC50 [3, 12]: 250 nM
Compound: Cc1ccc(-c2cc3cc(O)c(O)cc3oc2=O)o1 [Example 36, 3-(5-methylfuran-2-yl)-6,7-dihydroxycoumarin]

The next lines start with the compound.

Compound: O=c1cc(-c2ccccc2)c2ccc(O)c(O)c2o1 [Comp. Example 3, reference compound]
IC50 ([1]; Test Example 1, Table 1 and text, read-out: 12-lipoxygenase IC50 value): 260 nM
selectivity between 12-lipoxygenase and 5-lipoxygenase (in words) [2]: no selectivity was found
IC50 ([3]; text of Test Example 1, not shown in Table 1, read-out: 5-lipoxygenase inhibitory activity IC50 value): 640 nM

Compound: O=c1ccc2cc(O)c(O)cc2o1 [Esculetin, 6,7-dihydroxycoumarin, reference compound]
12-lipoxygenase inhibitory activity (in words) [1]: considerably weaker inhibitory effect on 12-lipoxygenase than the compounds of the present invention
IC50 [1, 10]: 4400 nM
IC50 ([1]; 12-lipoxygenase IC50 value, Test Example 1, Table 1 and text): 4400 nM
selectivity between 12-lipoxygenase and 5-lipoxygenase (in words) [2]: no selectivity was found
IC50 [3]: 4300 nM
IC50 [4]: 2500 nM

Compound: Oc1ccc(C2COc3cc(O)c(O)cc3C2)cc1 (stereo not drawn) [compound of 12), 4',6,7-trihydroxyisoflavan]
inhibition of formation of 5-lipoxygenase metabolic products ([5]; human peripheral leukocytes): completely
selectivity between 5-lipoxygenase and 12-lipoxygenase (in words) ([5]; literature, leukocytes vs. platelets): selective toward 5-lipoxygenase
inhibition of formation of 12-lipoxygenase metabolic products [6]: 25%

Compound: O=c1cc(-c2ccccc2)oc2cc(O)c(O)c(O)c12 [Baicalein, 5,6,7-trihydroxyflavone, reference compound]
IC50 [1, 10]: 42 nM
IC50 ([1]; 12-lipoxygenase inhibiting activities of deacylated compounds (IC50 values), Test Example 3, Table 11, value belongs to the deacylated compound): 42 nM
IC50 ([1]; IC50 value of 12-lipoxygenase, Test Example 2, Table 2): 42 nM
IC50 ([1]; read-out: 12-Lipoxygenase inhibiting activity IC50 value, Test Example 5, Table 22): 42 nM
IC50 [3]: 2400 nM
IC50 ([3]; read-out: IC50 value of 5-lipoxygenase, Test Example 2, Table 2): 2400 nM
12-lipoxygenase inhibitory activity (in words) [7]: relatively strong 12-lipoxygenase inhibitory activity
selectivity (in words) [7]: relatively high selectivity

Compound: O=c1oc2c(O)c(O)ccc2cc1-c1ccc(Br)cc1 [Example 25, 3-(4-bromophenyl)-7,8-dihydroxycoumarin]
IC50 [1, 11]: 13 nM
IC50 [3, 12]: 420 nM
